Source: patent publication US20200010482A1, “INHIBITORS OF BETA SECRETASE” (Janssen Pharmaceutica NV, priority 2017, published 2020)

Tests used:
[1] = tested on: Abeta total produced and secreted by SKNBE2 cells expressing hAPP695; test: Cellular αLisa assay in SKNBE2 cells, Abeta total; assay type: cell-based, human; conditions: SKNBE2 cells expressing hAPP695, 18 hours incubation
Description: In two αLisa assays the levels of Abeta total and Abeta 1-42 produced and secreted into the medium of human neuroblastoma SKNBE2 cells are quantified. The assay is based on the human neuroblastoma SKNBE2 expressing the wild type Amyloid Precursor Protein (hAPP695). The compounds are diluted and added to these cells, incubated for 18 hours and then measurements of Abeta 1-42 and Abeta total are taken. Abeta total and Abeta 1-42 are measured by sandwich αLisa. αLisa is a sandwich assay using biotinylated antibody AbN/25 attached to streptavidin coated beads and antibody Ab4G8 or cAb42/26 conjugated acceptor beads for the detection of Abeta total and Abeta 1-42 respectively. In the presence of Abeta total or Abeta 1-42, the beads come into close proximity. The excitation of the donor beads provokes the release of singlet oxygen molecules that trigger a cascade of energy transfer in the acceptor beads, resulting in light emission. Light emission is measured after 1 hour incubation (excitation at […] and emission at 615 nm).
A best-fit curve is fitted by a minimum sum of squares method to the plot of % Controlmin versus compound concentration. From this an IC50 value (inhibitory concentration causing 50% inhibition of activity) can be obtained. • LC=Median of the low control values=Low control: cells preincubated without compound, without biotinylated Ab in the αLisa • HC=Median of the High control values=High Control: cells preincubated without compound
% Effect=100−[(sample−LC)/(HC−LC)*100]
% Control=(sample/HC)*100
% Controlmin=(sample−LC)/(HC−LC)*100

β-secretase I (BACE1) = β-secretase I (BACE1) (Homo sapiens, UniProt P56817); test: Biochemical assay, automated (CyclOps), BACE1; conditions: automated CyclOps bioassay; for IC50: read-out: AUTOMATED ASSAY BACE1 pIC50 (converted)
Description: (§1) Unless otherwise indicated all biochemicals were purchased from Sigma-Aldrich Chemical Company, Poole, Dorset, U.K. and non-aqueous solvents, of analytical or higher grade, were purchased from ThermoFisher Scientific, Loughborough, U.K. MilliQ water (Elix 5 & MilliQ Gradient; Merck Millipore) was used as the base aqueous solvent to make up the biological buffers. Base assay buffer was prepared by adding a 50 mM solution of citric acid (1.00244; Merck Biosciences) to stirring solution of 50 mM trisodium citrate (1.06448; Merck Biosciences) until a final pH of 5.0 was achieved. […] All assays were routinely carried out in 384-well assay plates (Costar 4514; Corning Life Sciences) and incubated at 37±1° C. for 60 min. prior to reading the endpoint fluorescence intensity. The (7-methoxyl coumarin-4-yl)acetic acid based substrate β-secretase substrate VI (M2465; Bachem) was prepared as a 1 mM stock in 100% DMSO (D/4121/PB08; ThermoFisher). Assay buffer was prepared by adding DMSO to base buffer to a final concentration of 1% (vol./vol.). β-secretase I (18.64 μM; “BACE1”) and β-secretase II (4.65 μM; “BACE2”) were obtained from Janssen Pharmaceutica, Beerse, Belgium and were stored as frozen aliquots (˜20 μl) and thawed as required.
(§2) Typically 12.5 μl of assay buffer was dispensed to rows B to P of the assay plate. To row A was added 18.75 μl of test compound diluted appropriately in assay buffer. A 6.25 μl aliquot of sample was transferred from row A to row B and the sample mixed three times by pipette. The process was repeated down the plate and 6.25 μl of solution discarded at row N post-mix. Rows O and P were designated as the positive and negative controls. To row P was added 6.25 μl base buffer. To rows A to O was added 6.25 μl enzyme (freshly prepared 40 nM BACE1 or 40 nM BACE2) diluted in base buffer. To initiate the assay 6.25 μl of freshly prepared 80 μM substrate, made up by diluting the 1 mM in 100% DMSO solution into HPLC grade water (Optima W6-212; ThermoFisher), was added to all the wells. The assay plate was covered and incubated at 37±1° C. for 60 min. The fluorescence intensity of the wells was read at 360/405 nm (excitation/emission) utilising a nine reads per well protocol (50 ms integration; density of 3, 0.25 mm spacing; SpectraMAX Paradigm plate reader; TUNE cartridge; SoftMax Pro v 6.3 software; Molecular Devices UK Ltd., Wokingham, Berkshire, UK) and outputting the median value of the nine reads as a text file. Data analysis was carried out using Prism software v 6.3 (GraphPad Inc., San Diego, Calif., USA) using the non-linear regression analysis models supplied by the vendor. For IC50 determinations the four parameter logistic variable slope model was used to fit the raw fluorescence intensity data with the ‘bottom’ fixed to the negative control.
(§3) The CyclOps bioassay module consisted of a fraction collection station, a reagent station, liquid handling robotics, plate store and an integrated plate reader (SpectraMAX Paradigm, TUNE cartridge, SoftMax Pro v 6.3; Molecular Devices). The fraction collection station composed of a 384 well collection plate (P-384-240SQ-C; Axygen, Union City, Calif., USA) mounted on a H-portal carriage (Festo AG & Co. KG, Esslingen, Germany), a syringe drive and a two-way six port injection valve fitted with a 200 μl loop (VICI AG International, Schenkon Switzerland). The output of the injection valve was addressable to all the positions of a 384 well collection plate. The reagent station consisted of hydraulically cooled (10-12° C.) aluminium segments; each manufactured to house a SBS microtiter plate footprint. Independent addressable reagent stations were housed within these sections. Where required, custom aluminium housings were used to accommodate standard laboratory plastic ware (e.g. Eppendorf tubes, Falcon tubes, etc.). As and when required the reagent reservoirs were covered and the lids contained holes through which the Teflon-coated probe could access solutions. […]

β-secretase II (BACE2) = target: T1, β-secretase II (BACE2) (Homo sapiens, UniProt Q9Y5Z0); test: Biochemical assay, automated (CyclOps), BACE2; conditions: automated CyclOps bioassay; for IC50: read-out: AUTOMATED ASSAY BACE2 pIC50 (converted)
T1 sequence (Q9Y5Z0 63-518): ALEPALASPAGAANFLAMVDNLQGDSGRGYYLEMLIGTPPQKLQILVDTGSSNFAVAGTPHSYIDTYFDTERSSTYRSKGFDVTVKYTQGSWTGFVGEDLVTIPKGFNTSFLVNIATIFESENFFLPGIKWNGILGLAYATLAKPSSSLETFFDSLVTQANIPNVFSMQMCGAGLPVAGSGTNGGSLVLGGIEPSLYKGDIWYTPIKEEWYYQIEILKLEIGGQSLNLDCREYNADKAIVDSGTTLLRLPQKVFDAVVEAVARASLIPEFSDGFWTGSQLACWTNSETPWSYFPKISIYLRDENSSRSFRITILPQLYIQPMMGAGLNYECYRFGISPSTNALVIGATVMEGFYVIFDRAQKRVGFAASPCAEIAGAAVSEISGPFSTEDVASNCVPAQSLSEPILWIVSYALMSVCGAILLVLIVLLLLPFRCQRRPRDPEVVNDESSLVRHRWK
Description: as §1, §2, §3

Sequence of β-secretase I (BACE1) (P56817 46-501): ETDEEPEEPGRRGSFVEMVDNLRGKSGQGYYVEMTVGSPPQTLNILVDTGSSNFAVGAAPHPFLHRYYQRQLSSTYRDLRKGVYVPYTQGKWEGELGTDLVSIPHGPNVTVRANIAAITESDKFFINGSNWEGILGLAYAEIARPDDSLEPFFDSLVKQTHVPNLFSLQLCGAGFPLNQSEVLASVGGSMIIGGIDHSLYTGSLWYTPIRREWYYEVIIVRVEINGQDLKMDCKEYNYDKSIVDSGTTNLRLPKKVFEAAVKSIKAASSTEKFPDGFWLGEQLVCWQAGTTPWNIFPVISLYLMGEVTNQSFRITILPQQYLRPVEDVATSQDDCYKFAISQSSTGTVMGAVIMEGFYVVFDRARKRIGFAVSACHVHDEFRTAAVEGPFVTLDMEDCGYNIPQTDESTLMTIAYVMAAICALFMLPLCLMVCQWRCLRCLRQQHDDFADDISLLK

COc1ncc(C#N)c2c1C[C@]1(c3ccccc3F)N=C(N)SC[C@@H]1C2 (racemic) [Compound 22]
IC50 ([1]; Homo sapiens, SKNBE2, 18 h, read-out: CELLULAR αLISA ASSAY IN SKNBE2 CELLS ABETA TOTAL pIC50 (converted)): 49 nM

COc1ncc(-c2ccccc2C)c2c1C[C@]1(c3ccc(F)cc3F)N=C(N)SC[C@@H]1C2 [Compound 55]
AUTOMATED ASSAY BACE1 pIC50 (β-secretase I (BACE1)): 7.77
AUTOMATED ASSAY BACE2 pIC50 (β-secretase II (BACE2)): 7.3

COC/C=C/c1cnc(OC)c2c1C[C@H]1CSC(N)=N[C@@]1(c1ccc(F)cc1F)C2 [Compound 47]
IC50 (β-secretase I (BACE1)): 9.77 nM
IC50 (β-secretase II (BACE2)): 5.89 nM

COc1cc(C)c(-c2cnc(OC)c3c2C[C@H]2CSC(N)=N[C@@]2(c2ccc(F)cc2F)C3)cn1 [Compound 106]
IC50 (β-secretase I (BACE1)): 4.68 nM
IC50 (β-secretase II (BACE2)): 75.9 nM

COc1ncc(-c2cc(Cl)ccc2C)c2c1C[C@]1(c3ccc(F)cc3F)N=C(N)SC[C@@H]1C2 [Compound 60]
AUTOMATED ASSAY BACE1 pIC50 (β-secretase I (BACE1)): 7.65
AUTOMATED ASSAY BACE2 pIC50 (β-secretase II (BACE2)): 6.73

COc1ncc(-c2ccccc2)c2c1C[C@]1(c3ccc(F)cc3F)N=C(N)SC[C@@H]1C2 [Compound 49]
AUTOMATED ASSAY BACE1 pIC50 (β-secretase I (BACE1)): 8.6
CELLULAR αLISA ASSAY IN SKNBE2 CELLS ABETA TOTAL pIC50 [1]: 8.75
AUTOMATED ASSAY BACE2 pIC50 (β-secretase II (BACE2)): 9.02
